# Source: US11950594B2, “Methods and compositions for inhibiting formation of biofilms” (INSTITUTE OF MICROBIOLOGY, CHINESE ACADEMY OF SCIENCES, priority 2019, dated 2024)
# Key:
# Pseudomonas aeruginosa = assay: Virulence in cabbage model; assay type: in vivo; conditions: C9 5 mM, 37° C., 36 hours, CFU
# Method: The PAO1 culture inoculated with the coumarin-chalcone compound C9 (5 mM) was injected into a cabbage model and incubated at 37° C. for 36 hours. Then the colony phenotype was observed and colony-forming units (CFU) were calculated.
# In the embodiment, the cabbage model was used to carry out the vivo experiment in vivo to study whether the coumarin-chalcone compound C9 affects the virulence of Pseudomonas aeruginosa. FIG. 9 is a schematic diagram illustrating virulences of bacteria of a blank group, a control group, and an experimental group treated with a coumarin-chalcone compound C9.
# pKa by HCl/KOH titration = assay type: physicochemical; conditions: titration with HCl (25 mM) and KOH (25 mM)
# Method: UV-Vis spectral analysis was used to study the stability of the coumarin-chalcone compound C9 at a pH range of 3.4 to 8.4. […] After reaching pH=2, KOH (25 mM) was added slowly until the pH reached 12. In this way, a graph of a relationship between the pH and the volume of KOH added was plotted to find an equivalent point and thus the pKa.
# [1] = test system: Staphylococcus aureus biofilm; assay: 96-well plate crystal violet biofilm detection; assay type: cell-based; conditions: FIG. 11
# Method: 1% inoculation amount of the bacterial solution cultured overnight was inoculated into 100 μL Jensen liquid medium. Different equal amounts of bacteria solution with C1 to C12, respectively, or without any additional substance were cultured in a 96-well polyvinyl chloride (PVC) plate (costar) overnight at 30° C. without agitation.
# The bacterial biomass adsorbed on the 96-well PVC plate was detected by a crystal violet method, and steps were described as below. (1) The non-attached bacteria were removed using a pipettor, then the wells were gently rinsed with normal saline for 3 times. (2) A volume of 120 μL 0.1% crystal violet solution was added to stain the firmly attached bacterial cells in each well, which then staying static at room temperature for 30 min. (3) The PVC plate was taken out, the crystal violet solution was removed with a pipettor, and the non-attached crystal violet solution was washed with normal saline. (4) The crystal violet attached onto the PVC plate was dissolved with 200 μL of 30% acetic acid solution. The OD value of the acetic acid solution in each well was measured at 560 nm with a spectrophotometer.
# FIG. 11 is a schematic diagram illustrating an inhibiting effect of a coumarin-chalcone compound C9 on Staphylococcus aureus and Escherichia coli biofilms. […]
# [2] = test system: Psl polysaccharide production; assay: Psl immunoblot analysis; assay type: cell-based, Pseudomonas aeruginosa; conditions: C9 5 mM, Jensen media, 37° C., 24 hours
# Method: Pseudomonas aeruginosa PAO1 was inoculated in Jensen media at 37° C. for 24 hours with shaking and treated with the coumarin-chalcone compound C9 (5 mM) or DMSO (5 mM), respectively. OD600 values of the overnight cultured bacterial solutions were measured, and a bacterial solution with an OD (optical density) of 10 was collected. The bacterial solution with the OD of 10 was a bacterial solution whose OD600 was 2 and the collected volume was 5 mL. The bacterial solution was centrifuged at 13000 r/min for 5 min and the corresponding supernatant was discarded. The obtained precipitate was dissolved in 100 μL of 0.5 M EDTA. Then the EDTA solution was boiled at 100° C. for 5 min and centrifuged, and the precipitate was discarded. The obtained supernatant was treated with proteinase K (final concentration, 0.5 mg/mL) for 1 h at 60° C., followed by inactivation of proteinase K for 30 min at 80° C. to obtain a polysaccharide extract. A volume of 3 μL of polysaccharide extract was spotted onto a nitrocellulose membrane and dried. After washing with TBST for 3 times, a blocking was done with 10% skimmed milk at room temperature for 1 h. The anti-Psl antibody (i.e., a primary antibody) (1:25,000 dilution) was added and then solution was treated at 25° C. for 1 h. […] Western blot data was quantitatively analyzed using Image Lab™ 5.1 software.
smiles,measurement,setting,value
COc1cccc(/C=C/C(=O)c2cc3ccccc3oc2=O)c1 [Compound C9],reduction of virulence of Pseudomonas aeruginosa in the cabbage model,Pseudomonas aeruginosa,60%
same,pKa,pKa by HCl/KOH titration,5.66
same,reduction of Staphylococcus aureus biofilm,[1],30%
same,reduction of Psl production,[2],60%
